Reference: US9834571B2, “Compounds for inhibiting cell proliferation in EGFR-driven cancers” (ARIAD Pharmaceuticals, Inc., priority 2012, dated 2017)
Like-named read-outs stand apart in the source and are kept apart here.

Legend:
[1] = tested on: BaF3 cells expressing wildtype EGFR; assay: Antiproliferative activity (MTT) against control BaF3 cells expressing wildtype EGFR; assay type: cell-based; conditions: Mus musculus
Experimental: (§1) We also assessed the antiproliferative activity of compounds of Formula (I) against BaF3 cells expressing the target EGFR mutations or control (i.e., cell lines expressing wildtype EGFR). Assays were conducted using MTT.

EGFR L858R = EGFR L858R (Homo sapiens, UniProt P00533, L858R); assay: Kinase inhibitory activity against EGFR bearing the L858R mutation; assay type: biochemical; conditions: 10 μM ATP, read-out: IC50 for kinase inhibition, EGFR L858R
Experimental: (§2) Kinase inhibitory activity of the compounds was measured against human EGFR (native sequence) and against EGFR bearing the L858R mution and the L858R/T790M double mutation (EGFR, L858R, and L858R/T790M, respectively in Table 1). Additional assays can be conducted with EGFR deletion mutants such as delE746-A750 with or without the additional T790M mutation. Assay conditions included 10 pt curves with 3 μM top concentration (singlicates) and 10 μM ATP.

[2] = target: T1, BaF3 cells expressing the target EGFR mutations (Homo sapiens, UniProt P00533, T790M/L858R, cells depend on it); assay: Antiproliferative activity (MTT) against BaF3 cells expressing the target EGFR mutations; assay type: cell-based; conditions: BAF3 EGFR L858R-T790M PURO POOL cells, read-out: IC50, BAF3 EGFR L858R-T790M PURO POOL
T1 construct: IC50, BAF3 EGFR L858R-T790M PURO POOL; other: BAF3 EGFR L858R-T790M PURO POOL cells, MTT; IC50, BAF3 EGFR L858R-T790M PURO POOL; other: BAF3 EGFR L858R-T790M PURO POOL cells; MTT
Experimental: as §1

[3] = target: T2, BaF3 cells expressing the target EGFR mutations (Homo sapiens, UniProt P00533, T790M, cells depend on it, form not given); assay: as above; assay type: cell-based; conditions: BAF3 EGFR DEL T790M PURO POOL cells, read-out: IC50, BAF3 EGFR DEL T790M PURO POOL
T2 construct: IC50, BAF3 EGFR DEL T790M PURO POOL; other: BAF3 EGFR DEL T790M PURO POOL cells, MTT; other: BAF3 EGFR DEL T790M PURO POOL cells; MTT
Experimental: as §1

EGFR L858R/T790M = EGFR L858R/T790M (Homo sapiens, UniProt P00533, L858R/T790M); assay: Kinase inhibitory activity against EGFR bearing the L858R/T790M double mutation; assay type: biochemical; conditions: 10 μM ATP, read-out: IC50 for kinase inhibition, EGFR L858R T790M
Experimental: as §2

[4] = target: human EGFR (native sequence) (Homo sapiens, UniProt P00533); assay: Kinase inhibitory activity against human EGFR (native sequence); assay type: biochemical; conditions: 10 μM ATP, read-out: IC50 for kinase inhibition, EGFR
Experimental: as §2

[5] = 10 pt curves, 3 μM top concentration
[6] = EGFR L858R/T790M double mutation

T1 sequence (P00533 whole entry T790M/L858R): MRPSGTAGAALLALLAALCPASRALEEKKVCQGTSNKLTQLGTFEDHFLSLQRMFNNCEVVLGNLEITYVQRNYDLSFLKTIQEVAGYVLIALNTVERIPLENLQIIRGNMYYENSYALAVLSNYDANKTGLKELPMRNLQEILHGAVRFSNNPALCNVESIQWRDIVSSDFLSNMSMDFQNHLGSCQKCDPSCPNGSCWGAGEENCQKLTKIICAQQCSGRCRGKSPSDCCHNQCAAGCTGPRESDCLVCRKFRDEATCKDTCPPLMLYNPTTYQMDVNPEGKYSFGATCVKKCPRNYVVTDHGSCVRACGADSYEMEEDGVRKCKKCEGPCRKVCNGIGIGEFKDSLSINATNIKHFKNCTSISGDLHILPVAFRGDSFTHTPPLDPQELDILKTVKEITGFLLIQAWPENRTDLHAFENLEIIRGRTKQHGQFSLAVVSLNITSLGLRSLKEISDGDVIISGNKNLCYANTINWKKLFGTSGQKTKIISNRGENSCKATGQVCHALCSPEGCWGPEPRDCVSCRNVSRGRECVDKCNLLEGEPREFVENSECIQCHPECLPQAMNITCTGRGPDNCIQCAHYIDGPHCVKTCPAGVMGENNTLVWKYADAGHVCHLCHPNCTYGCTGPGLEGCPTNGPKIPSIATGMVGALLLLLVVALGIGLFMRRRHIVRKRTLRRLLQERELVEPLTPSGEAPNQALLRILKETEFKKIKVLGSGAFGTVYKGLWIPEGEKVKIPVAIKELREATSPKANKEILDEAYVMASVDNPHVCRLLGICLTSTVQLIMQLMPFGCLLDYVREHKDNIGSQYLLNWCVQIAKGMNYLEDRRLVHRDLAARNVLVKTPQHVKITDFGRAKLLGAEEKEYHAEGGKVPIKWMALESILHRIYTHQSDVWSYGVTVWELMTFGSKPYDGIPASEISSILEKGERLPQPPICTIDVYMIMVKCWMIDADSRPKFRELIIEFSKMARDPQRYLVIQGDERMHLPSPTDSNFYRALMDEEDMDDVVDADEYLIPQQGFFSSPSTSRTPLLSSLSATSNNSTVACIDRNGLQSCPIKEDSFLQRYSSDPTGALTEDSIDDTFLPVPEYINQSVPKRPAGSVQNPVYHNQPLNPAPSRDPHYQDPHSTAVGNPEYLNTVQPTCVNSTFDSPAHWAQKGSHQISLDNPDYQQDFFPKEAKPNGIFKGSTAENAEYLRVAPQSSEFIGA
Chain of human EGFR (native sequence) (P00533 25-1210): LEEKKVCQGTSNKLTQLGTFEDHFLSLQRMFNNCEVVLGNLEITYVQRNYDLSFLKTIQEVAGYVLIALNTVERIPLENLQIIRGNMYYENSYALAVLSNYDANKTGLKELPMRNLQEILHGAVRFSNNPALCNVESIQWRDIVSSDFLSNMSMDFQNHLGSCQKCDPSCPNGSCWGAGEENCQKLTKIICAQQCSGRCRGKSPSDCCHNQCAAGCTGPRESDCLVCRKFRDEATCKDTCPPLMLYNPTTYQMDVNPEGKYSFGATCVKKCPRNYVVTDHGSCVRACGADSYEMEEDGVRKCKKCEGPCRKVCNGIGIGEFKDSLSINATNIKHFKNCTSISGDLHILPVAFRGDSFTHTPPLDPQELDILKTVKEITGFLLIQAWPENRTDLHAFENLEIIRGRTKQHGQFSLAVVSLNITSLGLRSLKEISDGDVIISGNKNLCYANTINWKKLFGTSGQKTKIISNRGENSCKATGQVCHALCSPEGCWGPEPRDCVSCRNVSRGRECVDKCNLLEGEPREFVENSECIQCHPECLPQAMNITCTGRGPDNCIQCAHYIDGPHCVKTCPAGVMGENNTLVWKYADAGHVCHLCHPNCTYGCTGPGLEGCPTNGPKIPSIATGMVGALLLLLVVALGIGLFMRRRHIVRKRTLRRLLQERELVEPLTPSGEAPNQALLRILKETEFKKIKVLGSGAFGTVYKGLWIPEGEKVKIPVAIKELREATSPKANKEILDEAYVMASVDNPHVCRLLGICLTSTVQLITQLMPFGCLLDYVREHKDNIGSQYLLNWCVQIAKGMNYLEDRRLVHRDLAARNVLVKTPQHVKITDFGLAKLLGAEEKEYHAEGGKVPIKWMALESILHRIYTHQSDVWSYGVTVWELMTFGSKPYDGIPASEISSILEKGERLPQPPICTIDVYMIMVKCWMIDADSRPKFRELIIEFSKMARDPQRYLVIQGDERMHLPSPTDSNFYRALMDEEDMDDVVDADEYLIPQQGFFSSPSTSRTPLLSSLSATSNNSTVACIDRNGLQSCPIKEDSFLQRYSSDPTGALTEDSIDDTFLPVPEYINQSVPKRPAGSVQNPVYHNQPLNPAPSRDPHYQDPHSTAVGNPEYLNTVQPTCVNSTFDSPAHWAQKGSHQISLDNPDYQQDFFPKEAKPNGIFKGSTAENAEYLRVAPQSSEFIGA
T2 sequence (P00533 with tags, fused parts or gaps DEL746-750/T790M, form open): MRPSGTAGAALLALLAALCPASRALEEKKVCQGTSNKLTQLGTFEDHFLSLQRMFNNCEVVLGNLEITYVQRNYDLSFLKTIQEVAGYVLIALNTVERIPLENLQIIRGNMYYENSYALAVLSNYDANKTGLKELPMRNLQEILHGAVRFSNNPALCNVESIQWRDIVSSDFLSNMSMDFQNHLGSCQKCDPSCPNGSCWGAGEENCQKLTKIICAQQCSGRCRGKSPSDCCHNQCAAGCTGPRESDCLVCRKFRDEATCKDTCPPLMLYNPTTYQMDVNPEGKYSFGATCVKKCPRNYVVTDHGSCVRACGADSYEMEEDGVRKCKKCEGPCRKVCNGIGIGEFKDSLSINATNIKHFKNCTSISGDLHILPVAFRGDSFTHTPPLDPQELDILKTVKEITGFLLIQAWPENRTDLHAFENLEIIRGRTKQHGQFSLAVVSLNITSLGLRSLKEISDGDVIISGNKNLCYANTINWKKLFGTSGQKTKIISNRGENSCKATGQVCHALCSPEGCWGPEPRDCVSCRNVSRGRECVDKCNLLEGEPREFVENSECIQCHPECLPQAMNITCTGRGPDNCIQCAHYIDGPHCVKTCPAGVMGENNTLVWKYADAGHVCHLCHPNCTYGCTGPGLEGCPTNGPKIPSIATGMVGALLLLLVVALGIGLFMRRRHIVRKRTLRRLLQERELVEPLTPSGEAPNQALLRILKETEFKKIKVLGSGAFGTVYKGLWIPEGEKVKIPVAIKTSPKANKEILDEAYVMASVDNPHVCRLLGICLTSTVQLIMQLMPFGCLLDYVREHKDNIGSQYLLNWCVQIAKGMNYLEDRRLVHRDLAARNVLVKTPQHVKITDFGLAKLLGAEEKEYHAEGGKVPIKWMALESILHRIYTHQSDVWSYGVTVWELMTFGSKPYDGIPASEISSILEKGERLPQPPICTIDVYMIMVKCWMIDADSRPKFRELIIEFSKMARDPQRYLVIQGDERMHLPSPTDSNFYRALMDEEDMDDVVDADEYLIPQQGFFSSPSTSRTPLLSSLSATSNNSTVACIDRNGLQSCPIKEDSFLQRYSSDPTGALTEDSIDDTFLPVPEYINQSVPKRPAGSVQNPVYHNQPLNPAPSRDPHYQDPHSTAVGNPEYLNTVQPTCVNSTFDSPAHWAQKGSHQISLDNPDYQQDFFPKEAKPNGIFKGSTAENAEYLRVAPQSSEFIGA
Chain of EGFR L858R/T790M (P00533 25-1210 T790M/L858R): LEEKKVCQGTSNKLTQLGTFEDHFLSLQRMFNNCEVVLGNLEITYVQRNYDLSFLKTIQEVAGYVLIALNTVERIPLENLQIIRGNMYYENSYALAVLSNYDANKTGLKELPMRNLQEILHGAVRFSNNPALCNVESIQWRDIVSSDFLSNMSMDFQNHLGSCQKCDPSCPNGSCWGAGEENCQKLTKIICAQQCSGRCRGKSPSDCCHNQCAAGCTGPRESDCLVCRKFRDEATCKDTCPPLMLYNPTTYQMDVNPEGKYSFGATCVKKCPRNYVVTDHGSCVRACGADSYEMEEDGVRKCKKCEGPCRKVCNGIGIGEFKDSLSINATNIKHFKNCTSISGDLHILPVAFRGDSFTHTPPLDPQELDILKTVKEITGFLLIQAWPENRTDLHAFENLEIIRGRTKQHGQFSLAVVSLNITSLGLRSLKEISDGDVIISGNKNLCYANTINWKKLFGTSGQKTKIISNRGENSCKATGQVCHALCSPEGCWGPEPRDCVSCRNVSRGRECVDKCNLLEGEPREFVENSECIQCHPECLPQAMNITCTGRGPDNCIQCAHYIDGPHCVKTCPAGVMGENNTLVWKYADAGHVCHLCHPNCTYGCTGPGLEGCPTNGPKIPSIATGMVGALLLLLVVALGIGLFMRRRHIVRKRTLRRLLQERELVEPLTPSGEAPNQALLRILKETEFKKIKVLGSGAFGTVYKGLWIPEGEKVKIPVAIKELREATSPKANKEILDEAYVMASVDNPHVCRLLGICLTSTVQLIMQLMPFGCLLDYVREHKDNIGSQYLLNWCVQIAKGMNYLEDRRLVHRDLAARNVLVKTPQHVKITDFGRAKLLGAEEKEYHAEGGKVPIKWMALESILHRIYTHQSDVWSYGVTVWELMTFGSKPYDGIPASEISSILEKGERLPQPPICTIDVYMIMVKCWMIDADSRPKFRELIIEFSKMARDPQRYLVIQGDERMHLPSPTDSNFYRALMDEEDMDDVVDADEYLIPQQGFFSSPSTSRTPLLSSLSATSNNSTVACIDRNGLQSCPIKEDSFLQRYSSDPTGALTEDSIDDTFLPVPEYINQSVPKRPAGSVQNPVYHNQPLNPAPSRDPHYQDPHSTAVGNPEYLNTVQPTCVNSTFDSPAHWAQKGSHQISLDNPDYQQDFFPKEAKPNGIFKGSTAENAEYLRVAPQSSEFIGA

Structure (SMILES)	IC50 ([1]; BAF3 parental cells) [µM]	IC50 (EGFR L858R; [5]) [µM]	GI50 [2] [µM]	GI50 [3] [µM]	IC50 (EGFR L858R/T790M; [5]) [µM]	IC50 [4, 5] [µM]	IC50 ([1]; BAF3 PARENTAL cells (control)) [µM]	IC50 (EGFR L858R; EGFR L858R) [µM]	IC50 (EGFR L858R/T790M; [6]) [µM]	IC50 ([4]; human EGFR native sequence) [µM]
COc1cc(C)c(NC(=O)CCl)cc1Nc1ncc(Cl)c(Nc2ccccc2P(C)(C)=O)n1 [Example 140, 2-chloro-N-(5-((5-chloro-4-((2-(dimethylphosphoryl)phenyl)amino)pyrimidin-2-yl)amino)-4-methoxy-2-methylphenyl)acetamide]	≥ 0.25	< 0.05	< 0.05	< 0.05	< 0.05	< 0.05	–	–	–	–
C=CC(=O)Nc1ccc(OC)c(Nc2ncc(Cl)c(Nc3ccc(OC4CCOC4)cc3P(C)(C)=O)n2)c1 (stereo not drawn) [Example 99, N-(3-((5-chloro-4-((2-(dimethylphosphoryl)-4-((tetrahydrofuran-3-yl)oxy)phenyl)amino)pyrimidin-2-yl)amino)-4-methoxyphenyl)acrylamide]	–	–	0.05 to 0.1	< 0.05	–	–	≥ 0.25	< 0.05	< 0.05	< 0.05
C=CC(=O)Nc1cc(Nc2ncc(Cl)c(Nc3ccccc3P(C)(C)=O)n2)c(OC)cc1N1CCN(C2CCN(C)CC2)CC1 [Example 27, N-(5-((5-chloro-4-((2-(dimethylphosphoryl)phenyl)amino)pyrimidin-2-yl)amino)-4-methoxy-2-(4-(1-methylpiperidin-4-yl)piperazin-1-yl)phenyl)acrylamide]	–	–	0.101 to 0.25	0.05 to 0.1	–	–	≥ 0.25	< 0.05	< 0.05	< 0.05
C=CC(=O)Nc1cc(Nc2ncc(Cl)c(Nc3ccccc3P(C)(C)=O)n2)c(OC)cc1O[C@H]1CCCN(C)C1 (single isomer, unassigned) [Example 16]	–	–	< 0.05	< 0.05	–	–	≥ 0.25	< 0.05	< 0.05	< 0.05
C=C(Cl)C(=O)Nc1ccc(OC)c(Nc2ncc(Cl)c(Nc3ccccc3P(C)(C)=O)n2)c1 [Example 132, 2-chloro-N-(3-((5-chloro-4-((2-(dimethylphosphoryl)phenyl)amino)pyrimidin-2-yl)amino)-4-methoxyphenyl)acrylamide]	≥ 0.25	< 0.05	0.101 to 0.25	< 0.05	< 0.05	< 0.05	–	–	–	–
C=CC(=O)Nc1ccc(OC)c(Nc2ncc(Cl)c(Nc3ccc(OCC4CCOCC4)cc3P(C)(C)=O)n2)c1 [Example 100, N-(3-((5-chloro-4-((2-(dimethylphosphoryl)-4-((tetrahydro-2H-pyran-4-yl)methoxy)phenyl)amino)pyrimidin-2-yl)amino)-4-methoxyphenyl)acrylamide]	–	–	< 0.05	< 0.05	–	–	≥ 0.25	< 0.05	< 0.05	0.05 to 0.1
C=CC(=O)Nc1cc(Nc2ncc(Cl)c(Nc3ccccc3P(C)(C)=O)n2)c(OC)cc1C#CC(C)(C)N(C)C [Example 155, N-(5-((5-chloro-4-((2-(dimethylphosphoryl)phenyl)amino)pyrimidin-2-yl)amino)-2-(3-(dimethylamino)-3-methylbut-1-yn-1-yl)-4-methoxyphenyl)acrylamide]	≥ 0.25	< 0.05	< 0.05	< 0.05	< 0.05	< 0.05	–	–	–	–
C=CC(=O)Nc1ccc(OC)c(Nc2ncc(Cl)c(Nc3cnccc3P(C)(C)=O)n2)c1 [Example 164, N-(3-((5-chloro-4-((4-(dimethylphosphoryl)pyridin-3-yl)amino)pyrimidin-2-yl)amino)-4-methoxyphenyl)acrylamide]	≥ 0.25	< 0.05	≥ 0.25	0.101 to 0.25	< 0.05	≥ 0.25	–	–	–	–
COc1ccc(NC(=O)/C=C/CN2CCCCC2)cc1Nc1ncc(Cl)c(Nc2ccccc2P(C)(C)=O)n1 [Example 92, (E)—N-(3-((5-chloro-4-((2-(dimethylphosphoryl)phenyl)amino)pyrimidin-2-yl)amino)-4-methoxyphenyl)-4-(piperidin-1-yl)but-2-enamide]	–	–	< 0.05	< 0.05	–	–	≥ 0.25	< 0.05	< 0.05	< 0.05
C=CC(=O)Nc1cc(Nc2ncc(Cl)c(Nc3ccccc3P(C)(C)=O)n2)c(OC)cc1N1CCC(N2CCC2)C1 (stereo not drawn) [Example 68, N-(2-(3-(azetidin-1-yl)pyrrolidin-1-yl)-5-((5-chloro-4-((2-(dimethylphosphoryl)phenyl)amino)pyrimidin-2-yl)amino)-4-methoxyphenyl)acrylamide]	–	–	< 0.05	< 0.05	–	–	≥ 0.25	< 0.05	< 0.05	< 0.05
C=C(CN1CCN(S(C)(=O)=O)CC1)C(=O)Nc1ccc(OC)c(Nc2ncc(Cl)c(Nc3ccccc3P(C)(C)=O)n2)c1 [Example 44, N-(3-((5-chloro-4-((2-(dimethylphosphoryl)phenyl)amino)pyrimidin-2-yl)amino)-4-methoxyphenyl)-2-((4-(methylsulfonyl)piperazin-1-yl)methyl)acrylamide]	–	–	< 0.05	< 0.05	–	–	≥ 0.25	< 0.05	< 0.05	< 0.05
C=CC(=O)Nc1cc(Nc2ncc(Cl)c(Nc3ccccc3P(C)(C)=O)n2)c(OC)cc1C#CCN1CCN(C)CC1 [Example 159, N-(5-((5-chloro-4-((2-(dimethylphosphoryl)phenyl)amino)pyrimidin-2-yl)amino)-4-methoxy-2-(3-(4-methylpiperazin-1-yl)prop-1-yn-1-yl)phenyl)acrylamide]	≥ 0.25	< 0.05	0.101 to 0.25	< 0.05	< 0.05	< 0.05	–	–	–	–
CCOC(=O)/C=C/C(=O)Nc1ccc(OC)c(Nc2ncc(Cl)c(Nc3ccccc3P(C)(C)=O)n2)c1 [Example 75, (E)-ethyl 4-((3-((5-chloro-4-((2-(dimethylphosphoryl)phenyl)amino)pyrimidin-2-yl)amino)-4-methoxyphenyl)amino)-4-oxobut-2-enoate]	–	–	< 0.05	< 0.05	–	–	≥ 0.25	< 0.05	< 0.05	< 0.05
C=CC(=O)Nc1ccc(OC)c(Nc2cc(Nc3ncccc3P(C)(C)=O)ncn2)c1 [Example 163, N-(3-((6-((3-(dimethylphosphoryl)pyridin-2-yl)amino)pyrimidin-4-yl)amino)-4-methoxyphenyl)acrylamide]	≥ 0.25	< 0.05	≥ 0.25	≥ 0.25	0.101 to 0.25	0.05 to 0.1	–	–	–	–
C=CC(=O)Nc1cc(Nc2ncc(Cl)c(Nc3ccc(OCCN4CCCC4)cc3P(C)(C)=O)n2)c(OC)cc1F [Example 98, N-(5-((5-chloro-4-((2-(dimethylphosphoryl)-4-(2-(pyrrolidin-1-yl)ethoxy)phenyl)amino)pyrimidin-2-yl)amino)-2-fluoro-4-methoxyphenyl)acrylamide]	–	–	< 0.05	< 0.05	–	–	≥ 0.25	< 0.05	< 0.05	< 0.05
COc1cc(N2CCOCC2)c(NC(=O)C#CCN(C)C)cc1Nc1ncc(Cl)c(Nc2ccccc2P(C)(C)=O)n1 [Example 104, N-(5-((5-chloro-4-((2-(dimethylphosphoryl)phenyl)amino)pyrimidin-2-yl)amino)-4-methoxy-2-morpholinophenyl)-4-(dimethylamino)but-2-ynamide]	≥ 0.25	< 0.05	< 0.05	< 0.05	< 0.05	< 0.05	–	–	–	–
